Results on 1 compound are retold here after patent US20240352040A1, “CRYSTAL FORM OF RIPK1 INHIBITOR, ACID SALT THEREOF, AND CRYSTAL FORM OF ACID SALT THEREOF” (GENFLEET THERAPEUTICS (SHANGHAI) INC., priority 2021, published 2024).

For one assay, the system named is U937 cells. As to the kind of experiment: Inhibition of TNF-α-induced programmed cell necrosis (necroptosis) in U937 cells, CellTiter-Glo. It is filed as cell-based. The following applies: U-937, human TNF-α + Q-VD-Oph, 48 hours, read-out: inhibitory IC50 against programmed necroptosis of cells induced by TNF-α. From the text:
The U937 cell line used in the following test examples was derived from ATCC, No.: CRL-1593.2, batch No.: 63479999, culture medium: RPMI-1640+10% FBS. The L929 cell line used in the following test examples was derived from ATCC, No.: CCL-1, batch No.: 70001022, culture medium: MEM+10% FBS+1% PS. The reagents used, their suppliers, and item numbers are as follows: RPMI-1640, Gibco, 11875-093; FBS, Gibco, 10099-141; Trypsin-EDTA, Gibco, 25200-072; PS, Gibco, 15140-122; CellTiter Glo, Promega, G7573; DMSO, VWR AMRESCO, 0231-500ML; TNF-α protein (human, recombinant), Peprotech, 300-01A; Q-VD-Oph, MCE, HY-12305; V-bottom plate, Corning, 3894; 384-well low flange white flat bottom microplate, Corning, 3570; RIPK1, Eurofins, 16-022; MOPS, BDH, 441644J; EDTA, Sigma, E5134; myelin basic protein, Sigma, M1891-25.00 MG; magnesium acetate, Merck, DU008026; ATP (non-radioactive labelled), Sigma, A-7699; ATP (radioactive labelled), Hartmann Analytic, DU008054; phosphoric acid, Metlab, DU003000; Z-VAD: Shanghai Twochem, YA02401.
The test compound was dissolved in DMSO and diluted to a series of concentration gradients with DMSO. […] After sufficient lysis reaction, the chemiluminescence readings were recorded by a microplate reader. The survival rate was calculated from the detection results using the equation as follows: SR (%)=(RLU compound−RLU blank)/(RLU high control−RLU blank)×100%. […]
(In ATP-based viability assays light output follows the ATP content of the culture.)

The target of another assay is T1, RIPK1 (Homo sapiens, UniProt Q13546).
T1 construct: purchased Eurofins 16-022
T1 sequence (Q13546 1-671): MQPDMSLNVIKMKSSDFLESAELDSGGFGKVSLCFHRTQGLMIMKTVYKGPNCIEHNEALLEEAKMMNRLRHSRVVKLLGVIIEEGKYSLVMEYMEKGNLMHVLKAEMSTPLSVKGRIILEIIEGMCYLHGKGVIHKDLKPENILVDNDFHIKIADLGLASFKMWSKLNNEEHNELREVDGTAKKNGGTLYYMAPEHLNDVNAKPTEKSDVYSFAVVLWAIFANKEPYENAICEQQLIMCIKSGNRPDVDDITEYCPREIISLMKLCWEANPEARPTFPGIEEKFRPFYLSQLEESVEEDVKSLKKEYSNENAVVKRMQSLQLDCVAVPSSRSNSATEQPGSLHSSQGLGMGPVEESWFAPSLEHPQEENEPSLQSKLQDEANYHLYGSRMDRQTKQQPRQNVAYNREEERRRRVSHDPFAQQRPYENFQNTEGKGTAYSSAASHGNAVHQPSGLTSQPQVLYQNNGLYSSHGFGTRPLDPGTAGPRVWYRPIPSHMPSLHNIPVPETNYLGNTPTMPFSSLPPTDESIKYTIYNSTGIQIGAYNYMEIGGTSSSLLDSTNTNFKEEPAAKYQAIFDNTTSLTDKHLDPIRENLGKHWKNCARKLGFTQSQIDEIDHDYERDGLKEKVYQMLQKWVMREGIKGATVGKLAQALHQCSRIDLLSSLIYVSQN
As to the kind of experiment: Inhibitory activity against RIPK1 enzyme, P33-ATP / MBP substrate radiometric assay. It is filed as biochemical. The following applies: 36 nM RIPK1, 0.33 mg/mL MBP, 155 μM P33 ATP, 2 hours room temperature. On the procedure:
(§1) The U937 cell line used in the following test examples was derived from ATCC, No.: CRL-1593.2, batch No.: 63479999, culture medium: RPMI-1640+10% FBS. The L929 cell line used in the following test examples was derived from ATCC, No.: CCL-1, batch No.: 70001022, culture medium: MEM+10% FBS+1% PS. […]
The test compound was dissolved in DMSO to prepare a 10 mM stock solution, and diluted 3.16-fold with DMSO to a series of gradient concentrations. […] The final reaction system was detected using a liquid scintillation counter after treatment. The result after detection was subtracted from the blank control and converted to the percentage of activity compared with the reading of the control group. […]

Another assay has as its system L929 cells. Put plainly: Inhibition of TNF-α-induced programmed necrosis of L929 cells, CellTiter-Glo. It is filed as cell-based. The following applies: 30 ng/mL mouse TNF-α + 15 μM Z-VAD, 6 hours, read-out: inhibitory IC50 against programmed necroptosis of cells induced by TNF-α. On the procedure: as §1
The compound was dissolved in DMSO to prepare a 10 mM stock solution and diluted 3.16-fold with DMSO to a series of gradient concentrations. […] After sufficient lysis reaction, the chemiluminescence readings were recorded by a microplate reader. The survival rate was calculated from the detection results using the equation as follows: SR (%)=(RLU compound−RLU blank)/(RLU high control−RLU blank)×100%. […]

For orientation: IC50 means the concentration needed to halve the response being measured. In the case of `Nc1nc2cc(-c3cnc4c(c3)C(=O)N(Cc3cc(OC(F)(F)F)ccc3F)CC4)ccn2n1` [compound of formula I, 3-(2-amino-[1,2,4]triazolo[1,5-a]pyridin-7-yl)-6-(2-fluoro-5-(trifluoromethoxy)benzyl)-7,8-dihydro-1,6-naphthyridin-5(6H)-one], the IC50 in the assay on U937 cells amounted to 6 nM; on RIPK1, 39 nM; with L929 cells, 3 nM.
